Source: patent US11279733B2, “Peptide antibiotics” (priority 2017, dated 2022)
Values after ≈ are worked out from the molar mass of the structure shown. Like-named read-outs stand apart in the source and are kept apart here. Positions of bridges follow the written chain, without caps; N, C: chain ends. Non-standard residues stand in square brackets, D forms with d. Residues, ends and D or L forms follow the SMILES beside them. ξ: configuration not given here. *: point of attachment. Decanoyl(3R-OH) = CCCCCCC[C@@H](O)CC(=O)*; dPhe(4-NH2) = Nc1ccc(C[C@@H](N)C(=O)O)cc1; Decanoyl(3ξ-OH) = CCCCCCCC(O)CC(=O)*; d3Pal = N[C@H](Cc1cccnc1)C(=O)O; dDab = NCC[C@@H](N)C(=O)O; Dab = NCC[C@H](N)C(=O)O; Dap = NC[C@H](N)C(=O)O

How the values were obtained:
[1] = in vitro; conditions: human
Description: Cytotoxicity of the synthesised peptides was evaluated by comparison with commercially available colistin (polymyxin E), polymyxin B (Sigma chemical Co., St. Louis, Mo., U.S.A.) and synthetic octapeptin C4 by conducting lactate dehydrogenase (LDH) assay. CC50 values calculated based on curve fitting of dose dependent inhibition of cell growth represented the cytotoxicity of the peptide. Human kidney 2 (HK2) cells were seeded as 2000 cells per well in a 384 well cell culture plate in a final volume of 20 μL in DMEM/F12 medium (Invitrogen #11330057), in which 10% of FBS was added. Cells were incubated for 24 hours at 37° C., 5% CO2 to allow cells to attach to the plates. Similar conditions were employed for HEK293 and HepG2 cytotoxicity assays.
Cytotoxicity to HEK293 and HepG2 cells was determined using the resazurin assay (McMillian, M. K.; Li, L.; Parker, J. B.; Patel, L.; Zhong, Z.; Gunnett, J. W.; Powers, W. J.; Johnson, M. D. An improved resazurin-based cytotoxicity assay for hepatic cells; Cell Biol. Toxicol. 2002, 18, 157-173; O'Brien, J.; Wilson, I.; Orton, T.; Pognan, F. Investigation of the Alamar Blue (resazurin) fluorescent dye for the assessment of mammalian cell cytotoxicity. Eur. J. Biochem. 2000, 267, 5421-5426). In brief, HEK293 and HepG2 cells were seeded at 4000 cells/well in black-wall, clear-bottom 384-well plates (Corning, Australia) and incubated for 24 h at 37° C., 5% CO2. Compounds were then added into each well. After 24 h incubation, 5 μM resazurin was added per well and incubated at 37° C. for 2 h. Fluorescence intensity was then read using a Polarstar Omega with excitation/emission 560/590. The data was then analyzed using GraphPad Prism 6 software. CC50 values were determined using GraphPad Prism 6 software (Inc. La Jolla, Calif.).

[2] = test system: P. aeruginosa ATCC 27853; conditions: ATCC 27853
Outline: (§1)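 Mid-log cultures grown in Mueller Hinton broth at 37° C were tested by 2-fold broth microdilution at 5×10^5 CFU/mL final. Compounds were dissolved in water and tested over a final range of 32 to 0.015 μg/mL.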

[3] = test system: K. pneumoniae ATCC BAA-2146, NDM-1 pos; conditions: ATCC BAA-2146
Outline: as §1

[4] = test system: K. pneumoniae ATCC 13883; conditions: ATCC 13883
Outline: as §1

[5] = test system: A. baumannii ATCC 19606; conditions: ATCC 19606
Outline: as §1

[6] = test system: P. aeruginosa GN_105, PmxR; conditions: GN 105, PmxR
Outline: as §1

[7] = test system: K. pneumoniae GN_106, PmxR; conditions: GN 106, PmxR
Outline: as §1

[8] = test system: S. aureus ATCC 25923, MSSA; conditions: ATCC 25923
Outline: as §1

[9] = test system: P. aeruginosa GN_043, PmxR
Outline: as §1

[10] = test system: K. pneumoniae GN_102 PmxR; conditions: GN 102 PmxR
Outline: as §1

[11] = test system: E. coli ATCC 25922; conditions: ATCC 25922
Outline: as §1

[12] = test system: K. pneumoniae ATCC 700603, MDR; conditions: ATCC 700603
Outline: as §1

[13] = test system: A. baumannii GN_093 PmxR; conditions: GN 093 PmxR
Outline: as §1

Compound	CC50 at 24 h [1] [µM]	MIC P. aeruginosa ATCC 27853 [2] [µg/mL]	MIC K. pneumoniae ATCC BAA-2146, NDM-1 pos [3] [µg/mL]	MIC K. pneumoniae ATCC 13883 [4] [µg/mL]	MIC A. baumannii ATCC 19606 [5] [µg/mL]	MIC P. aeruginosa GN_105, PmxR [6] [µg/mL]	MIC K. pneumoniae GN_106, PmxR [7] [µg/mL]	MIC S. aureus ATCC 25923, MSSA [8] [µg/mL]	MIC K. pneumoniae GN_102 PmxR [10] [µg/mL]	MIC E. coli ATCC 25922 [11] [µg/mL]	MIC K. pneumoniae ATCC 700603, MDR [12] [µg/mL]	MIC A. baumannii GN_093 PmxR [13] [µg/mL]	MIC P. aeruginosa GN_043, PmxR ([9]; P. aeruginosa GN_043, PmxR) [µg/mL]	further results
CCCCCCCC(O)CC(=O)N[C@H](CCN)C(=O)N[C@H]1CCNC(=O)[C@H](CC(C)C)NC(=O)[C@H](CCN)NC(=O)[C@H](CCN)NC(=O)[C@H](CC(C)C)NC(=O)[C@@H](Cc2ccccc2)NC(=O)[C@H](CCN)NC1=O (stereo partly drawn) [compound 5013, 3OH-nC9CO-D-Dab-cyc[L-Dab-L-Dab-D-Phe-L-Leu-L-Dab-L-Dab-L-Leu]] ({Decanoyl(3ξ-OH)}-[dDab][Dab][Dab][dF]L[Dab][Dab]L; lactam 2-C)	> 300	2 (≈ 1.92 µM)	16 (≈ 15.3 µM)	4 (≈ 3.83 µM)	16 (≈ 15.3 µM)	2 (≈ 1.92 µM)	16 (≈ 15.3 µM)	16 (≈ 15.3 µM)	4 (≈ 3.83 µM)	8 (≈ 7.66 µM)	8 (≈ 7.66 µM)	8 (≈ 7.66 µM)	–	MIC P. aeruginosa GN_043, PmxR [9]: 2 µg/mL (≈ 1.92 µM)
CCCCCCC[C@@H](O)CC(=O)N[C@H](CCCCN)C(=O)N[C@H]1CCNC(=O)[C@H](CC(C)C)NC(=O)[C@H](CCN)NC(=O)[C@H](CCN)NC(=O)[C@H](CC(C)C)NC(=O)[C@@H](Cc2ccccc2)NC(=O)[C@H](CCN)NC1=O [compound 5381, 3(R)OH-nC9CO-D-Lys-cyc[L-Dab-L-Dab-D-Phe-L-Leu-L-Dab-L-Dab-L-Leu]] ({Decanoyl(3R-OH)}-[dK][Dab][Dab][dF]L[Dab][Dab]L; lactam 2-C)	> 300	–	–	–	–	4 (≈ 3.73 µM)	4 (≈ 3.73 µM)	–	4 (≈ 3.73 µM)	–	–	8 (≈ 7.46 µM)	–	MIC, P. aeruginosa ATCC 27853 [2]: 4 µg/mL (≈ 3.73 µM); MIC, K. pneumoniae ATCC BAA-2146, NDM-1 pos [3]: 8 µg/mL (≈ 7.46 µM); MIC, K. pneumoniae ATCC 13883 [4]: 8 µg/mL (≈ 7.46 µM); MIC, A. baumannii ATCC 19606 [5]: 16 µg/mL (≈ 14.9 µM); MIC, S. aureus ATCC 25923, MSSA [8]: >32 µg/mL; MIC P. aeruginosa GN_043, PmxR ([9]; Table 6, polymyxin-resistant): 2 µg/mL (≈ 1.86 µM); MIC, E. coli ATCC 25922 [11]: 8 µg/mL (≈ 7.46 µM); MIC, K. pneumoniae ATCC 700603, MDR [12]: 4 µg/mL (≈ 3.73 µM)
CCCCCCC[C@@H](O)CC(=O)N[C@H](CCN)C(=O)N[C@H]1CCCCNC(=O)[C@H](CC(C)C)NC(=O)[C@H](CCN)NC(=O)[C@H](CCN)NC(=O)[C@H](CC(C)C)NC(=O)[C@@H](Cc2ccccc2)NC(=O)[C@H](CCN)NC1=O [compound 5382, 3(R)OH-nC9CO-D-Dab-cyc[L-Lys-L-Dab-D-Phe-L-Leu-L-Dab-L-Dab-L-Leu]] ({Decanoyl(3R-OH)}-[dDab]K[Dab][dF]L[Dab][Dab]L; lactam 2-C)	> 300	4 (≈ 3.73 µM)	8 (≈ 7.46 µM)	8 (≈ 7.46 µM)	32 (≈ 29.8 µM)	2 (≈ 1.86 µM)	>32	32 (≈ 29.8 µM)	>32	4 (≈ 3.73 µM)	8 (≈ 7.46 µM)	>32	2 (≈ 1.86 µM)	–
CCCCCCC[C@@H](O)CC(=O)N[C@@H](CN)C(=O)N[C@H]1CCNC(=O)[C@H](CC(C)C)NC(=O)[C@H](CCN)NC(=O)[C@H](CCN)NC(=O)[C@H](CC(C)C)NC(=O)[C@@H](Cc2ccccc2)NC(=O)[C@H](CCN)NC1=O [compound 5561, 3(R)OH-nC9CO-L-Dap-cyc[L-Dab-L-Dab-D-Phe-L-Leu-L-Dab-L-Dab-L-Leu]] ({Decanoyl(3R-OH)}-[Dap][Dab][Dab][dF]L[Dab][Dab]L; lactam 2-C)	> 300	–	–	–	–	2 (≈ 1.94 µM)	4 (≈ 3.88 µM)	–	4 (≈ 3.88 µM)	–	–	8 (≈ 7.76 µM)	–	MIC, P. aeruginosa ATCC 27853 [2]: 2 µg/mL (≈ 1.94 µM); MIC, K. pneumoniae ATCC BAA-2146, NDM-1 pos [3]: 8 µg/mL (≈ 7.76 µM); MIC, K. pneumoniae ATCC 13883 [4]: 4 µg/mL (≈ 3.88 µM); MIC, A. baumannii ATCC 19606 [5]: 16 µg/mL (≈ 15.5 µM); MIC, S. aureus ATCC 25923, MSSA [8]: 16 µg/mL (≈ 15.5 µM); MIC P. aeruginosa GN_043, PmxR ([9]; Table 6, polymyxin-resistant): 2 µg/mL (≈ 1.94 µM); MIC, E. coli ATCC 25922 [11]: 4 µg/mL (≈ 3.88 µM); MIC, K. pneumoniae ATCC 700603, MDR [12]: 8 µg/mL (≈ 7.76 µM)
CCCCCCC[C@@H](O)CC(=O)N[C@@H](CCN)C(=O)N[C@H]1CCNC(=O)[C@H](CC(C)C)NC(=O)[C@H](CN)NC(=O)[C@H](CCN)NC(=O)[C@H](CC(C)C)NC(=O)[C@@H](Cc2ccccc2)NC(=O)[C@H](CCN)NC1=O [compound 5564, 3(R)OH-nC9CO-L-Dab-cyc[L-Dab-L-Dab-D-Phe-L-Leu-L-Dab-L-Dap-L-Leu]] ({Decanoyl(3R-OH)}-[Dab][Dab][Dab][dF]L[Dab][Dap]L; lactam 2-C)	> 300	2 (≈ 1.94 µM)	8 (≈ 7.76 µM)	8 (≈ 7.76 µM)	>32	32 (≈ 31.1 µM)	8 (≈ 7.76 µM)	32 (≈ 31.1 µM)	4 (≈ 3.88 µM)	8 (≈ 7.76 µM)	16 (≈ 15.5 µM)	32 (≈ 31.1 µM)	–	MIC P. aeruginosa GN_043, PmxR ([9]; polymyxin-resistant): 2 µg/mL (≈ 1.94 µM)
CCCCCCC[C@@H](O)CC(=O)N[C@H](Cc1ccc(N)cc1)C(=O)N[C@H]1CCNC(=O)[C@H](CC(C)C)NC(=O)[C@H](CCN)NC(=O)[C@H](CCN)NC(=O)[C@H](Cc2ccccc2)NC(=O)[C@@H](CC(C)C)NC(=O)[C@H](CCN)NC1=O [compound 6429, 3(R)OH-nC9CO-D-4NH2Phe-cyc[L-Dab-L-Dab-D-Leu-L-Phe-L-Dab-L-Dab-L-Leu]] ({Decanoyl(3R-OH)}-[dPhe(4-NH2)][Dab][Dab][dL]F[Dab][Dab]L; lactam 2-C)	> 300	32 (≈ 28.9 µM)	16 (≈ 14.5 µM)	16 (≈ 14.5 µM)	32 (≈ 28.9 µM)	32 (≈ 28.9 µM)	8 (≈ 7.23 µM)	>32	8 (≈ 7.23 µM)	16 (≈ 14.5 µM)	8 (≈ 7.23 µM)	>32	16 (≈ 14.5 µM)	–
CCCCCCC[C@@H](O)CC(=O)N[C@H](Cc1cccnc1)C(=O)N[C@H]1CCNC(=O)[C@H](CC(C)C)NC(=O)[C@H](CCN)NC(=O)[C@H](CCN)NC(=O)[C@H](Cc2ccccc2)NC(=O)[C@@H](CC(C)C)NC(=O)[C@H](CCN)NC1=O [compound 6430, 3(R)OH-nC9CO-D-3PyPhe-cyc[L-Dab-L-Dab-D-Leu-L-Phe-L-Dab-L-Dab-L-Leu]] ({Decanoyl(3R-OH)}-[d3Pal][Dab][Dab][dL]F[Dab][Dab]L; lactam 2-C)	> 300	32 (≈ 29.3 µM)	16 (≈ 14.6 µM)	16 (≈ 14.6 µM)	32 (≈ 29.3 µM)	32 (≈ 29.3 µM)	4 (≈ 3.66 µM)	>32	8 (≈ 7.32 µM)	16 (≈ 14.6 µM)	8 (≈ 7.32 µM)	>32	16 (≈ 14.6 µM)	–
